Here are results for 7 molecules from ChEMBL document CHEMBL5291721, “A preclinical secondary pharmacology resource illuminates target-adverse drug reaction associations of marketed drugs” (Nat Commun, 2023).

Molecules are shown by their SMILES.

As a reminder, the AC50 is the concentration at which the activity in the assay is half-maximal.

Experiment [1] deals with T1, Alpha-2A adrenergic receptor (Homo sapiens, UniProt P08913).
T1 sequence (P08913 whole entry): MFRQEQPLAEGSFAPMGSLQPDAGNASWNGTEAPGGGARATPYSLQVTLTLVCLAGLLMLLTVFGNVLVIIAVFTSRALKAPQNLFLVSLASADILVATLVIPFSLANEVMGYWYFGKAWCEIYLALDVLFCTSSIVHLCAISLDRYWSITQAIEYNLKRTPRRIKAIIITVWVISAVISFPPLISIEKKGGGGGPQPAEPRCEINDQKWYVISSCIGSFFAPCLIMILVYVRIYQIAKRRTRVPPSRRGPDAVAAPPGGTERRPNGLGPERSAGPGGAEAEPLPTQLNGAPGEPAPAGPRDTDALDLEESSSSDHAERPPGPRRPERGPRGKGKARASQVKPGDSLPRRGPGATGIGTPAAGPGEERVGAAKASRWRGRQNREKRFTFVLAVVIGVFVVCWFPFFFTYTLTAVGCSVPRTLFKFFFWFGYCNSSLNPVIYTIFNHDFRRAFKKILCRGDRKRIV
Format: functional, cell-based.

Experiment [2] has as its target Neuronal acetylcholine receptor subunit alpha-4 (Homo sapiens, UniProt P43681).
Experiment [3] deals with T2, Cholecystokinin receptor type A (Homo sapiens, UniProt P32238).
T2 sequence (P32238 whole entry): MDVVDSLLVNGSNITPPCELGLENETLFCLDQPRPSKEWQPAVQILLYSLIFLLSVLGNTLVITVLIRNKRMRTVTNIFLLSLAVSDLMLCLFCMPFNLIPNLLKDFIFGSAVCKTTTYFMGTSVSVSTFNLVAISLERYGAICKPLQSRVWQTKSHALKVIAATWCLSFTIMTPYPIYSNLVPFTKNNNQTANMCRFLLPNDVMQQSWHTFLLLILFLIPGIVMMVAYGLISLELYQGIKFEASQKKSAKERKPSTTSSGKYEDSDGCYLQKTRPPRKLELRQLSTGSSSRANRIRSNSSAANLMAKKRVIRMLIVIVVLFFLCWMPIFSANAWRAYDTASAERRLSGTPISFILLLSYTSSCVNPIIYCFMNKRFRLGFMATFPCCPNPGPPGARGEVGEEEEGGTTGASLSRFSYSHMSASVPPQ

Experiment [4] deals with T3, Adenosine receptor A1 (Homo sapiens, UniProt P30542).
T3 sequence (P30542 whole entry): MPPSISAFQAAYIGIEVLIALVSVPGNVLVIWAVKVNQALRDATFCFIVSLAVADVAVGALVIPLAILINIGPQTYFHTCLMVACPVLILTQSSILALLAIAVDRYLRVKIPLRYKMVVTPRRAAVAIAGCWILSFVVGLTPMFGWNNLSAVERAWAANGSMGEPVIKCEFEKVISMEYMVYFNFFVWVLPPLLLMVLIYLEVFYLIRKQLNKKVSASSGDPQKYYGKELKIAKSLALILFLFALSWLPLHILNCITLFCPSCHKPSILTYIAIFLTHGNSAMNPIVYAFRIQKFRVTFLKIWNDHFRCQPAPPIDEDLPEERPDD

In experiment [5] the target is Melanocortin receptor 3 (Homo sapiens, UniProt P41968).
Chain of Melanocortin receptor 3 (P41968 whole entry): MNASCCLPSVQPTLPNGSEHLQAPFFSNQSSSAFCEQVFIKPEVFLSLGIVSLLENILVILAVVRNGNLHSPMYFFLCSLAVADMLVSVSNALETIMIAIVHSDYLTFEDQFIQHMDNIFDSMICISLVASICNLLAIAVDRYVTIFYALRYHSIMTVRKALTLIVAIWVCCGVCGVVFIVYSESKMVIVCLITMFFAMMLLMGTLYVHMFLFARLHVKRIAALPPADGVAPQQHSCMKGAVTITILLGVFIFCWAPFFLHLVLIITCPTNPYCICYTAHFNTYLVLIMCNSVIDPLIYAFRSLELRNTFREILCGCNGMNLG
Experiment [6] deals with Sodium-dependent noradrenaline transporter (Homo sapiens, UniProt P23975).
Chain of Sodium-dependent noradrenaline transporter (P23975 whole entry): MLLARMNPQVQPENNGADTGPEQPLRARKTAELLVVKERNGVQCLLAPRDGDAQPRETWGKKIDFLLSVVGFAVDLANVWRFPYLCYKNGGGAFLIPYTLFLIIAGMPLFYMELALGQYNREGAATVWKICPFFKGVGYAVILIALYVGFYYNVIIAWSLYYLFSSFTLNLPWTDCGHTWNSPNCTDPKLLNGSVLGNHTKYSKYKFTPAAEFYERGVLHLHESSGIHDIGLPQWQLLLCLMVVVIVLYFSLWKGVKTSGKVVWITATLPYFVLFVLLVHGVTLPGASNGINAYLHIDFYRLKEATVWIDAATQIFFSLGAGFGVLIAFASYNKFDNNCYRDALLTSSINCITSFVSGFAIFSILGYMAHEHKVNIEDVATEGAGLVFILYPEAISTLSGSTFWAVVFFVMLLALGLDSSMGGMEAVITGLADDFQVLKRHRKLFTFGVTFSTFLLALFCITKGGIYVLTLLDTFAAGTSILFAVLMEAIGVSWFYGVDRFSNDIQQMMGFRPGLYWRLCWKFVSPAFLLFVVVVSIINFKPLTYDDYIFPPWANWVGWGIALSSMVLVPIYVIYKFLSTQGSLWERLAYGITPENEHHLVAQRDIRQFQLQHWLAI
Experiment [7] has as its target D(3) dopamine receptor (Homo sapiens, UniProt P35462).
Experiment [8] deals with Motilin receptor (Homo sapiens, UniProt O43193).
Chain of Motilin receptor (O43193 whole entry): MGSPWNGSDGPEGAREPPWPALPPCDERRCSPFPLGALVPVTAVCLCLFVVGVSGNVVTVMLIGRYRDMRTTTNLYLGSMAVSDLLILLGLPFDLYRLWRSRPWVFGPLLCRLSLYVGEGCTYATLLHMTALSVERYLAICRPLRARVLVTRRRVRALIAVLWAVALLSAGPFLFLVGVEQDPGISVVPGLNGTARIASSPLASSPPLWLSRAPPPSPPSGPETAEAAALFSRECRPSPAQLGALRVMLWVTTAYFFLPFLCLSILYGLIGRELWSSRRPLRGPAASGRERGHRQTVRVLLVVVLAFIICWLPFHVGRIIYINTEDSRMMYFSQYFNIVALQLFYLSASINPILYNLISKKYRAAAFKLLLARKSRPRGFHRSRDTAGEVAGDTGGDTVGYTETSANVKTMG
The target in experiment [9] is T4, Alpha-2C adrenergic receptor (Homo sapiens, UniProt P18825).
T4 sequence (P18825 whole entry): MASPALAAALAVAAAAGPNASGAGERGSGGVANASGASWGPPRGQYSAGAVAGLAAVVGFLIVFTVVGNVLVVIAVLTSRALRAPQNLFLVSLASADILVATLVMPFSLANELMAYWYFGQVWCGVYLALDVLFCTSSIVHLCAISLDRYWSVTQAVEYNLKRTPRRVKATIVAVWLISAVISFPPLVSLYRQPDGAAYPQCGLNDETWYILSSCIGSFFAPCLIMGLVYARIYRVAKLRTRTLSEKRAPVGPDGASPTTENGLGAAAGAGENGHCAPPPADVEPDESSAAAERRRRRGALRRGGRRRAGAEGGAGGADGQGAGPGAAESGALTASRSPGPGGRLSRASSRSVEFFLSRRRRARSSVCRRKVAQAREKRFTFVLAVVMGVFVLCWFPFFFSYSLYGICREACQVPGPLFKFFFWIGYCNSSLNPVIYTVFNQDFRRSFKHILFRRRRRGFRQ
The format is functional.

The target of experiment [10] is Sodium-dependent dopamine transporter (Homo sapiens, UniProt Q01959).
Experiment [11] addresses Voltage-gated inwardly rectifying potassium channel KCNH2 (Homo sapiens, UniProt Q12809). Format: functional. The following applies: read-out: AC50.
The target of experiment [12] is Bile salt export pump (Homo sapiens, UniProt O95342). The format is functional.
Chain of Bile salt export pump (O95342 whole entry): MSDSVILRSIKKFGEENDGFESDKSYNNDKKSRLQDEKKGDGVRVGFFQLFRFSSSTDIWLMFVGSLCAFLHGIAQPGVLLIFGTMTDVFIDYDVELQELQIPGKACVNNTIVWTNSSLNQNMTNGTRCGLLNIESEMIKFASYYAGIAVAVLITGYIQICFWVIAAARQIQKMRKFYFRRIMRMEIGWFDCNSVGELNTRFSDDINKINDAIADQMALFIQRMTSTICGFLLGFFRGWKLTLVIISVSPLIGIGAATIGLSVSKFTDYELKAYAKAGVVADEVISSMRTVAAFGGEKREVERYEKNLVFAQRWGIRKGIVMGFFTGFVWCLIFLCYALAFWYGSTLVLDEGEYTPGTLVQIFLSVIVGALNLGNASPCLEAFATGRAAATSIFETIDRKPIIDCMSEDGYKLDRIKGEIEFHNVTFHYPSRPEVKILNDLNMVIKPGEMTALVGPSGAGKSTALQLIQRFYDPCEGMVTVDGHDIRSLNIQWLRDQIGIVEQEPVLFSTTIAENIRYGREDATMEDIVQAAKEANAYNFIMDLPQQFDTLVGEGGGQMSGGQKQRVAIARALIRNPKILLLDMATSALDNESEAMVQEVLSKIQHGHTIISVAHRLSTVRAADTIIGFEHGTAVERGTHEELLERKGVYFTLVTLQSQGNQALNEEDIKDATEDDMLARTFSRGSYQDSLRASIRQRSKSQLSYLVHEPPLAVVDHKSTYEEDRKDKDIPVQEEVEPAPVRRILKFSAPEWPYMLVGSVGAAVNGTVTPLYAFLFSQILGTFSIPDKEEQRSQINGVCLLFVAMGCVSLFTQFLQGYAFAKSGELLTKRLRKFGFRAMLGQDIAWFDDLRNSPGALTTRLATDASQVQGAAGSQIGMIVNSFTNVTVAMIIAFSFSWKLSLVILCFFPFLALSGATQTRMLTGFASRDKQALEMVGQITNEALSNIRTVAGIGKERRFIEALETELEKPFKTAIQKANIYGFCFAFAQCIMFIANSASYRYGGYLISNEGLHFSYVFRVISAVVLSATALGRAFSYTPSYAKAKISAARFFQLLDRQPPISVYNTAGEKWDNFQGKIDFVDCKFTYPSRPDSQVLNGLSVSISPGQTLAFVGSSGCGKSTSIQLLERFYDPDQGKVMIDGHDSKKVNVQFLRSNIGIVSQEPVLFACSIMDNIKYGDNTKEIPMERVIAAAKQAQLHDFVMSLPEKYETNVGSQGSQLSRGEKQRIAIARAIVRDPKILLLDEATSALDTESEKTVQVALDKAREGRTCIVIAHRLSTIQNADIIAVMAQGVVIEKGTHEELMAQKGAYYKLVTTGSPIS
Experiment [13] has as its target 5-hydroxytryptamine receptor 2B (Homo sapiens, UniProt P41595). Format: functional, cell-based.
The target in experiment [14] is T1, Alpha-2A adrenergic receptor. Format: functional, cell-based. This is another data set of the same source.
Experiment [15] addresses Adenosine receptor A2a (Homo sapiens, UniProt P29274).
Experiment [16] addresses Beta-1 adrenergic receptor (Homo sapiens, UniProt P08588). Format: functional.
Experiment [17] has as its target T5, Muscarinic acetylcholine receptor M2 (Homo sapiens, UniProt P08172).
T5 sequence (P08172 whole entry): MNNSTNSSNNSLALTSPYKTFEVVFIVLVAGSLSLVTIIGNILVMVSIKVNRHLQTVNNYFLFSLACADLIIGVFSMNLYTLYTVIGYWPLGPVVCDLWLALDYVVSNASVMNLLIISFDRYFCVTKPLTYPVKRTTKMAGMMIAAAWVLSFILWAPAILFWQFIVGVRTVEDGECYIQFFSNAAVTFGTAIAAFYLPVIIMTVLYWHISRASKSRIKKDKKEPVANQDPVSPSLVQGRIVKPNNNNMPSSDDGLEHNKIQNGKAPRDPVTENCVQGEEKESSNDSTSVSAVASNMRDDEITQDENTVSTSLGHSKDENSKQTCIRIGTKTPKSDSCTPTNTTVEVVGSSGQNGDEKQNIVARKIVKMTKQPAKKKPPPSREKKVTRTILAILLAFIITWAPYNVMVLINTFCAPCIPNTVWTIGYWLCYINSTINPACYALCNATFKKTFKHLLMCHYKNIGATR
Format: functional, cell-based.
Also: assay procedure not described here.

Chain of Adenosine receptor A2a (P29274 whole entry): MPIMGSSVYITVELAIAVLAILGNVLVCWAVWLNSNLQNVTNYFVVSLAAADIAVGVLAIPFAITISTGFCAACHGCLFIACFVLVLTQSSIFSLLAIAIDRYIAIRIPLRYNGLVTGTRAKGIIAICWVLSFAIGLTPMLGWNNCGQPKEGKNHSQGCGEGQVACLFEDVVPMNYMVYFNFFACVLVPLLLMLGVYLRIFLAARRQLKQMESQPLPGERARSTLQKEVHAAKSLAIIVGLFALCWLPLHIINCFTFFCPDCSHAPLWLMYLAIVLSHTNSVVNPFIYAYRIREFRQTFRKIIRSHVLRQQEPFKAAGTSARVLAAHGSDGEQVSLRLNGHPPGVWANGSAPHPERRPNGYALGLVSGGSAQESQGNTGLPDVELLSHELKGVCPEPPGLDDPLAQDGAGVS
Chain of Neuronal acetylcholine receptor subunit alpha-4 (P43681 whole entry): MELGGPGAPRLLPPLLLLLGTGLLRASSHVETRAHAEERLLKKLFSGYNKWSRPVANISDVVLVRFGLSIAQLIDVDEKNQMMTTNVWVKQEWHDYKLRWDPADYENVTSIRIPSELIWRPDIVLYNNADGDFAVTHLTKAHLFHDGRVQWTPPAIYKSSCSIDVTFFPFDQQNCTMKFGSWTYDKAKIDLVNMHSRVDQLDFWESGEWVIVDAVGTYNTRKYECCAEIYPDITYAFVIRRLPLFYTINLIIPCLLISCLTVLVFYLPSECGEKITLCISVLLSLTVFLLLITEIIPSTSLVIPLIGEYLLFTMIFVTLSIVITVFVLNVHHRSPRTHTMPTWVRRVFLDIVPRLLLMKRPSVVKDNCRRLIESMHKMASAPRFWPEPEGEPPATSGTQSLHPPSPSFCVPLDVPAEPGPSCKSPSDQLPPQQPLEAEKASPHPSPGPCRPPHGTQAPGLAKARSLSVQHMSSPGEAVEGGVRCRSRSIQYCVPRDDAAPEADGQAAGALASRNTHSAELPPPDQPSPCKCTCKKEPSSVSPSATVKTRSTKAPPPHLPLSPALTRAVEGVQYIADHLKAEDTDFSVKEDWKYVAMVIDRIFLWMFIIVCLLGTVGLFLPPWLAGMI
Chain of 5-hydroxytryptamine receptor 2B (P41595 whole entry): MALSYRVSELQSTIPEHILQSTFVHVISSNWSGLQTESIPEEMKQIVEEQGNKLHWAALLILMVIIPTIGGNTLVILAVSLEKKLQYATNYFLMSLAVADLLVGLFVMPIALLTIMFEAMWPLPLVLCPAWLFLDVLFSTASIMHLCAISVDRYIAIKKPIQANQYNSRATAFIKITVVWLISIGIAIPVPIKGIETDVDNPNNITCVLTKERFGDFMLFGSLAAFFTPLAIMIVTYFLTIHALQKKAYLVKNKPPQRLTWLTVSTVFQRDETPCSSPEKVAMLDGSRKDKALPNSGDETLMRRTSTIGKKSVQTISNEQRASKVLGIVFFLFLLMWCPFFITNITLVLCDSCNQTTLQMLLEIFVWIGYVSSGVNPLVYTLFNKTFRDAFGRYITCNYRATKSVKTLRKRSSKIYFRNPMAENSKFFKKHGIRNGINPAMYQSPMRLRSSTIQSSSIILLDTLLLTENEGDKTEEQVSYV
Chain of Beta-1 adrenergic receptor (P08588 whole entry): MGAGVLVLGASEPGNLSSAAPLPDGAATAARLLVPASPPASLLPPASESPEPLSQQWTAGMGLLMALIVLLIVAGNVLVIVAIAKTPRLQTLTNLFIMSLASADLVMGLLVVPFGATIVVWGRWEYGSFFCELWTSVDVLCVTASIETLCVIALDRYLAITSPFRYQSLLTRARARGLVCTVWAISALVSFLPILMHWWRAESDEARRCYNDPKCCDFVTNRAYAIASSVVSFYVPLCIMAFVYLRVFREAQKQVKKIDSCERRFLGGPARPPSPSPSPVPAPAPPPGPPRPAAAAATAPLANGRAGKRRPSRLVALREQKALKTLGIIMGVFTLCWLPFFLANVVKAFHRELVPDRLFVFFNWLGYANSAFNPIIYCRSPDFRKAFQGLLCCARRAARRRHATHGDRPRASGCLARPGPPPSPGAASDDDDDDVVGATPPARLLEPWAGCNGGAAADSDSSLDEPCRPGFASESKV

Consider `Nc1ccn([C@H]2CC[C@@H](CO)O2)c(=O)n1` [ZALCITABINE], for which the AC50 in experiment [1], in experiment [2], in experiment [3], in experiment [4], in [5] and in experiment [6] was above 10 µM in each case. The concentration at half-maximal activity (AC50) in [7] is above 10 µM; in experiment [8], above 10 µM; in [9], above 10 µM; in experiment [10], above 10 µM; in [11], above 30 µM; in [12], above 300 µM. The AC50 in experiment [13], in experiment [14], in experiment [15], in [16] and in experiment [17] was above 10 µM each time.

As to `NS(=O)(=O)Cc1noc2ccccc12` [ZONISAMIDE], the AC50 in experiment [1], in experiment [2], in experiment [3], in experiment [4], in experiment [5] and in experiment [6] was above 10 µM in each case. Also, the AC50 in experiment [7] is above 30 µM; in [8], above 10 µM; in experiment [9] it was above 10 µM; in [10] it was above 10 µM; in [11], above 30 µM; in experiment [12] it was above 300 µM. Further, the AC50 in experiment [13], in experiment [14], in [15], in experiment [16] and in experiment [17] was above 10 µM in each case.

Regarding `CN1C(=O)CCS(=O)(=O)C1c1ccc(Cl)cc1` (centres undefined) [CHLORMEZANONE], the AC50 in [1], in experiment [2], in [3], in [4], in experiment [5] and in [6] was above 10 µM in each case. In addition, the AC50 is above 30 µM in experiment [7]; above 10 µM in experiment [8]; above 30 µM in experiment [9]; above 10 µM in [10]; above 30 µM in experiment [11]; above 300 µM in experiment [12]. In addition, the concentration at half-maximal activity (AC50) in experiment [13], in experiment [14], in experiment [15], in [16] and in experiment [17] was above 10 µM each time.

Consider `Cc1cccc(Nc2ccccc2C(=O)O)c1C` [MEFENAMIC ACID], for which the AC50 in [1], in [2], in experiment [3], in [4], in experiment [5] and in experiment [6] was above 10 µM in each case. Also, the concentration at half-maximal activity (AC50) in experiment [7] was above 30 µM; in [8], above 10 µM; in experiment [9] it was above 10 µM; in experiment [10], above 10 µM; in [11], above 30 µM; in experiment [12], 150 µM. Also, the AC50 in experiment [13], in experiment [14], in experiment [15], in [16] and in [17] was above 10 µM each time.

With `N[C@@H]1[C@H]2CN(c3nc4c(cc3F)c(=O)c(C(=O)O)cn4-c3ccc(F)cc3F)C[C@@H]12` [TROVAFLOXACIN], the AC50 in experiment [1], in [2], in [3], in experiment [4], in experiment [5] and in experiment [6] was above 30 µM throughout. In addition, the concentration at half-maximal activity (AC50) in [7] was above 30 µM; in experiment [8] it was above 30 µM; in experiment [9] it was above 30 µM; in experiment [10], above 30 µM; in experiment [11] it was above 30 µM; in experiment [12] it was above 300 µM. Also, the AC50 in [13], in experiment [14], in experiment [15], in experiment [16] and in experiment [17] was above 30 µM in each case.

Take `O=C(O[C@H]1C[C@H]2CC[C@@H](C1)[N+]21CCCC1)C(O)(c1ccccc1)c1ccccc1` [TROSPIUM]: the AC50 in [1], in experiment [2], in experiment [3], in [4], in experiment [5] and in experiment [6] was above 30 µM each time. Moreover, the concentration at half-maximal activity (AC50) in [7] is above 30 µM; in experiment [8], above 30 µM; in experiment [9], above 30 µM; in experiment [10], above 30 µM; in experiment [11] it was 0.63 µM; in experiment [12], above 300 µM. Also, the half-maximal activity concentration (AC50) in [13], in [14], in experiment [15], in [16] and in experiment [17] was above 30 µM in each case.

Regarding `Clc1ccc(C(c2ccccc2Cl)C(Cl)Cl)cc1` (centres undefined) [MITOTANE], the AC50 in [1], in experiment [2], in experiment [3], in experiment [4], in experiment [5] and in experiment [6] was above 10 µM throughout. Moreover, the AC50 in experiment [7] is above 30 µM; in experiment [8] it was above 10 µM; in experiment [9], above 10 µM; in experiment [10], above 10 µM; in experiment [11], above 30 µM; in experiment [12], 41 µM. The AC50 in experiment [13], in experiment [14], in experiment [15], in experiment [16] and in experiment [17] was above 10 µM in each case.
